Tests used:
[1] = biological target: T1, PKC theta (Homo sapiens, UniProt Q04759); test: PKC assay, fluorescence polarization (Example 2), PKC theta; type: biochemical; details: 5 μM ATP
T1 construct: purchased Upstate Biotechnologies, Temecula, CA 14-444
Procedure: The inhibition of PKC activity was measured by monitoring the production of phosphorylated peptide by fluorescence polarization at different concentrations of the inhibitor. Reactions were carried out in 96-well plate format with a total volume of 20 μL containing 20 mM HEPES, pH 7.4, 5 mM MgCl2, 0.2 mM CaCl2, 1 mM DTT, 0.02% Brij-35, 0.1 mg/mL phosphatidylserine, 0.02 mg/mL dioleoyl-sn-glycerol and 5 μM each of ATP and the peptide substrate. Compounds were first diluted serially in DMSO and then transferred to a solution containing the above concentrations of HEPES, MgCl2, CaCl2, DTT, and Brij-35 to yield 5× compound solutions in 2% DMSO, which was then added to the reaction solution. Reactions were initiated by the addition of PKC at a typical concentration as described in Table VI, and then allowed to incubate at room temperature for 20 min. At the end of this time, a combination of quench (EDTA) and detection (peptide tracer and antibody) reagents was added using the protocol of Invitrogen P2748.

[2] = system: Human primary T cells; test: IL-2 ELISA, Human Primary T Cell, Anti-CD3+CD28+ (Example 3); type: cell-based; details: anti-CD3+CD28 stimulation
Method in brief: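 IL-2 was read by ELISA after stimulation on wells pre-coated with 1 ug/ml αCD3 and 5 μg/ml αCD28. Before this, 100,000 human primary T cells per well spent 1 h at 37 °C with test compound in Yssel's medium. The counter-screen replaced antibody stimulation with PMA (0.5 ng/ml final) and ionomycin (0.1 uM final).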

T1 sequence (Q04759 whole entry): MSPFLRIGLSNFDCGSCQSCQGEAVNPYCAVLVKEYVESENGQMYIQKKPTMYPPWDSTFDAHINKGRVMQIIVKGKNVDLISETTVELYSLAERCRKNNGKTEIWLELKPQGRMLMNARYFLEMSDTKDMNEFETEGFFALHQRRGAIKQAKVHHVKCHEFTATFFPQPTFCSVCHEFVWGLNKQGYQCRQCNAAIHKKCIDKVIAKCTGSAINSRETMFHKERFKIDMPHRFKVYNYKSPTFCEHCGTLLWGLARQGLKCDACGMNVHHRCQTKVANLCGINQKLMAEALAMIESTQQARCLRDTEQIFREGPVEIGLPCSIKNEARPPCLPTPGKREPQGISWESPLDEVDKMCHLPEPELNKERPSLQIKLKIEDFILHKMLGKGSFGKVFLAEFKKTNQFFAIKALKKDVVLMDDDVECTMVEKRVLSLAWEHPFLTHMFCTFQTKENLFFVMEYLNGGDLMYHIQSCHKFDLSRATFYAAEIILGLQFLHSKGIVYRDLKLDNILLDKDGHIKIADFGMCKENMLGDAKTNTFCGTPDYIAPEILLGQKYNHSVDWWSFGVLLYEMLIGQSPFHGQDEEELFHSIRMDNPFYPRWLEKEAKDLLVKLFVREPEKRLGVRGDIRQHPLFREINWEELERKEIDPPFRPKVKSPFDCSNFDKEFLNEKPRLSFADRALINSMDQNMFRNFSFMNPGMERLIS

## COc1ccc(Nc2ncc(F)c(NC3CC(C)(C)N(C)C(C)(C)C3)n2)cc1Cl [Compound I-20]
[1]
  IC50: 5 nM
[2]; Homo sapiens, T-cell, 24 h
  IC50: 113 nM

## CN1CCC(Nc2nc(Nc3ccc(N4CCN(C)CC4)c(Cl)c3)ncc2F)CC1 [III-4, N2-[3-Chloro-4-(4-methylpiperazino)]phenyl-5-fluoro-N4-(1-methylpiperidin-4-yl)-2,4-pyrimidinediamine]
[1]
  IC50: 32.4 nM
[2]; Homo sapiens, T-cell, 24 h
  IC50: 1680 nM

## CN1C(C)(C)CC(Nc2nc(Nc3ccc(C#N)c(Cl)c3)ncc2F)CC1(C)C [Compound I-22]
[1]
  IC50: 21 nM
[2]; Homo sapiens, T-cell, 24 h
  IC50: 177 nM

## CC(=O)N1C(C)CN(c2cc(Nc3ncc(F)c(NC4CC(C)(C)N(C)C(C)(C)C4)n3)ccc2Cl)CC1C (stereo not drawn) [Compound I-251]
[1]
  IC50: 379 nM
[2]; Homo sapiens, T-cell, 24 h
  IC50: 384 nM

## Cc1cc(C)cc(Nc2ncc(F)c(NC3CC(C)(C)N(C)C(C)(C)C3)n2)c1 [Compound I-12]
[1]
  IC50: 22 nM
[2]; Homo sapiens, T-cell, 24 h
  IC50: 341 nM

## CN1C(C)(C)CC(Nc2nc(Nc3ccc(N4CCN(S(C)(=O)=O)CC4)c(OC(F)F)c3)ncc2F)CC1(C)C [Compound I-238]
[1]
  IC50: 3.94 nM
[2]; Homo sapiens, T-cell, 24 h
  IC50: 115 nM

## CN1C(C)(C)CC(Nc2nc(Nc3ccc(N4CCN(S(C)(=O)=O)CC4)c(C(F)(F)F)c3)ncc2F)CC1(C)C [Compound I-244]
[1]
  IC50: 34.1 nM
[2]; Homo sapiens, T-cell, 24 h
  IC50: 248 nM

## Cc1ccc(Nc2ncc(F)c(NC3CC(C)(C)N(C)C(C)(C)C3)n2)cc1S(N)(=O)=O [Compound I-11]
[1]
  IC50: 52 nM
[2]; Homo sapiens, T-cell, 24 h
  IC50: 1570 nM

## CN1C(C)(C)CC(Nc2nc(Nc3cccc(S(N)(=O)=O)c3)ncc2F)CC1(C)C [Compound I-10]
[1]
  IC50: 70 nM
[2]; Homo sapiens, T-cell, 24 h
  IC50: 1880 nM

## CN1C(C)(C)CC(Nc2nc(Nc3ccc(Br)c(Cl)c3)ncc2F)CC1(C)C [Compound I-153]
[1]
  IC50: 10.2 nM
[2]; Homo sapiens, T-cell, 24 h
  IC50: 209 nM

## CN1CCN(c2ccc(Nc3ncc(F)c(NC4CC(C)(C)N(C)C(C)(C)C4)n3)cc2F)CC1 [Compound I-39]
[1]
  IC50: 15 nM
[2]; Homo sapiens, T-cell, 24 h
  IC50: 937 nM

## Cc1cc(N2CCN(C)CC2)ncc1Nc1ncc(F)c(NC2CC(C)(C)N(C)C(C)(C)C2)n1 [Compound I-8]
[1]
  IC50: 213 nM
[2]; Homo sapiens, T-cell, 24 h
  IC50: 5810 nM

## CN1C(C)(C)CC(Nc2nc(Nc3ccc(-c4ccoc4)c(C(F)(F)F)c3)ncc2F)CC1(C)C [Compound I-328]
[1]
  IC50: 45.7 nM
[2]; Homo sapiens, T-cell, 24 h
  IC50: 288 nM

## CN1C(C)(C)CC(Nc2nc(Nc3ccc(NC(=O)c4ccco4)c(Cl)c3)ncc2F)CC1(C)C [Compound I-339]
[1]
  IC50: 31.8 nM
[2]; Homo sapiens, T-cell, 24 h
  IC50: 188 nM

## CC1CN(c2cc(Nc3ncc(F)c(NC4CC(C)(C)N(C)C(C)(C)C4)n3)ccc2Cl)CC(C)N1C (stereo not drawn) [Compound I-250]
[1]
  IC50: 1040 nM
[2]; Homo sapiens, T-cell, 24 h
  IC50: 1500 nM

## CN1C(C)(C)CC(Nc2nc(Nc3ccc(F)c(Br)c3)ncc2F)CC1(C)C [Compound I-158]
[1]
  IC50: 20.6 nM
[2]; Homo sapiens, T-cell, 24 h
  IC50: 489 nM

## CN1C(C)(C)CC(Nc2nc(Nc3ccc(-c4ccoc4)c(Cl)c3)ncc2F)CC1(C)C [Compound I-155]
[1]
  IC50: 14.4 nM
[2]; Homo sapiens, T-cell, 24 h
  IC50: 418 nM

## CN1C(C)(C)CC(Nc2nc(Nc3ccc(Cl)c(C#N)c3)ncc2F)CC1(C)C [Compound I-163]
[1]
  IC50: 3.8 nM
[2]; Homo sapiens, T-cell, 24 h
  IC50: 290 nM

## CN1CCC(Nc2nc(Nc3cccc(C#N)c3)ncc2F)CC1 [III-2, N2-(3-Cyano)phenyl-5-fluoro-N4-(1-methylpiperidin-4-yl)-2,4-pyrimidinediamine]
[1]
  IC50: 130 nM
[2]; Homo sapiens, T-cell, 24 h
  IC50: 1060 nM

## CCN1C(=O)CCc2cc(Nc3ncc(F)c(NC4CC(C)(C)N(C)C(C)(C)C4)n3)ccc21 [II-5]
[1]
  IC50: 37.8 nM
[2]; Homo sapiens, T-cell, 24 h
  IC50: 561 nM

## CN1C(C)(C)CC(Nc2nc(Nc3ccc(N4CCN(S(C)(=O)=O)CC4)c(C#N)c3)ncc2Cl)CC1(C)C [Compound I-175]
[1]
  IC50: 7.11 nM
[2]; Homo sapiens, T-cell, 24 h
  IC50: 205 nM

## CN1C(C)(C)CC(Nc2nc(Nc3cccc(-c4cnco4)c3)ncc2F)CC1(C)C [Compound I-100]
[1]
  IC50: 34.4 nM
[2]; Homo sapiens, T-cell, 24 h
  IC50: 494 nM

## Cc1cc(Nc2ncc(F)c(NC3CC(C)(C)N(C)C(C)(C)C3)n2)cnc1N1CCN(C)CC1 [Compound I-7]
[1]
  IC50: 16 nM
[2]; Homo sapiens, T-cell, 24 h
  IC50: 530 nM

## CN1C(C)(C)CC(Nc2nc(Nc3ccc(-c4cnn(C)c4)c(Cl)c3)ncc2F)CC1(C)C [Compound I-157]
[1]
  IC50: 3.1 nM
[2]; Homo sapiens, T-cell, 24 h
  IC50: 242 nM

## CN1C(C)(C)CC(Nc2nc(Nc3cc(C(F)(F)F)cc(C(F)(F)F)c3)ncc2F)CC1(C)C [Compound I-146]
[1]
  IC50: 123 nM
[2]; Homo sapiens, T-cell, 24 h
  IC50: 252 nM

## CN1C(C)(C)CC(Nc2nc(Nc3ccc(C#N)c(Cl)c3)ncc2Cl)CC1(C)C [Compound I-35]
[1]
  IC50: 24 nM
[2]; Homo sapiens, T-cell, 24 h
  IC50: 145 nM

## CN1C(C)(C)CC(Nc2nc(Nc3ccc(N4CCN(S(C)(=O)=O)CC4)c(C(F)(F)F)c3)ncc2C#N)CC1(C)C [Compound I-95]
[1]
  IC50: 43 nM
[2]; Homo sapiens, T-cell, 24 h
  IC50: 347 nM

## COc1ccc(Nc2ncc(F)c(NC3CC(C)(C)N(C)C(C)(C)C3)n2)cc1Br [Compound I-159]
[1]
  IC50: 7.29 nM
[2]; Homo sapiens, T-cell, 24 h
  IC50: 296 nM

## CN1C(C)(C)CC(Nc2nc(Nc3ccc(Br)c(C(F)(F)F)c3)ncc2F)CC1(C)C [Compound I-109]
[1]
  IC50: 107 nM
[2]; Homo sapiens, T-cell, 24 h
  IC50: 345 nM

## COc1ccc(Nc2ncc(F)c(NC3CC(C)(C)N(C)C(C)(C)C3)n2)cc1-c1cnco1 [Compound I-369]
[2]; 24 hours
  IC50: 624 nM

## CN1C(C)(C)CC(Nc2nc(Nc3cnc(N4CCOCC4)c(Cl)c3)ncc2F)CC1(C)C [Compound I-290]
[2]; 24 hours
  IC50: 596 nM

## COc1cc(Nc2ncc(F)c(NC3CC(C)(C)N(C)C(C)(C)C3)n2)cc(OC)c1OC [Compound I-19]
[2]; 24 hours
  IC50: 1230 nM

## CN1C(C)(C)CC(Nc2nc(Nc3ccc(S(=O)(=O)N4CCNCC4)c(Cl)c3)ncc2F)CC1(C)C [Compound I-46]
[2]; 24 hours
  IC50: 14300 nM

## C#Cc1cnc(Nc2cc(OC)cc(OC)c2)nc1NC1CC(C)(C)N(C)C(C)(C)C1 [Compound I-433]
[2]; Homo sapiens, T-cell, 24 h
  IC50: 2350 nM

## COC(=O)CCN1C(C)(C)CC(Nc2nc(Nc3ccc(OC)c(Cl)c3)ncc2F)CC1(C)C [Compound I-293]
[2]; Homo sapiens, T-cell, 24 h
  IC50: 2190 nM

## COc1cc(Nc2ncc(F)c(NC3CC(C)(C)N(CCC(=O)O)C(C)(C)C3)n2)cc(OC)c1 [Compound I-302]
[2]; Homo sapiens, T-cell, 24 h
  IC50: 25100 nM

## CCCc1nnnn1-c1cc(Nc2ncc(F)c(NC3CC(C)(C)N(C)C(C)(C)C3)n2)ccc1OC [Compound I-395]
[2]; 24 hours
  IC50: 100 nM

## CN1C(C)(C)CC(Nc2nc(Nc3ccc4c(c3)OC(C)(C)C(=O)N4CCF)ncc2C#N)CC1(C)C [II-79]
[2]; Homo sapiens, T-cell, 24 h
  IC50: 152 nM

## CCCN1C(=O)COc2cc(Nc3ncc(C#N)c(NC4CC(C)(C)N(C)C(C)(C)C4)n3)ccc21 [II-72]
[2]; Homo sapiens, T-cell, 24 h
  IC50: 168 nM

## CN1C(C)(C)CC(Nc2nc(Nc3ccc(OCCN4CCOCC4)c(Cl)c3)ncc2C#N)CC1(C)C [Compound I-373]
[2]; 24 hours
  IC50: 542 nM

## CCN1C(=O)C(C)(C)Oc2cc(Nc3ncc(C#C[Si](C)(C)C)c(NC4CC(C)(C)N(C)C(C)(C)C4)n3)ccc21 [II-151]
[2]; T-cell, 24 hours
  IC50: 1250 nM

## CN1C(C)(C)CC(Nc2nc(Nc3ccc(C(F)(F)F)c(C(F)(F)F)c3)ncc2F)CC1(C)C [Compound I-410]
[2]; 24 hours
  IC50: 1440 nM

## CN1CCN(C(=O)c2ccc(Nc3ncc(F)c(NC4CC(C)(C)N(C)C(C)(C)C4)n3)cc2C(F)(F)F)CC1 [Compound I-64]
[2]; 24 hours
  IC50: 2600 nM

## COc1cccc2sc(Nc3ncc(F)c(NC4CC(C)(C)N(C)C(C)(C)C4)n3)nc12 [II-20]
[2]; Homo sapiens, T-cell, 24 h
  IC50: 2100 nM

## CN1C(C)(C)CC(Nc2nc(Nc3ccc(Cl)c(Cl)c3)ncc2F)CC1(C)C [Compound I-336]
[2]; 24 hours
  IC50: 2040 nM

## COc1cc(Nc2ncc(Br)c(NC3CC(C)(C)N(C)C(C)(C)C3)n2)cc(OC)c1OC [Compound I-276]
[2]; 24 hours
  IC50: 1830 nM

## COc1cc(Nc2ncc(F)c(NC3CC(C)(C)NC(C)(C)C3)n2)cc(-n2cnnn2)c1 [Compound I-388]
[2]; 24 hours
  IC50: 110 nM

## CN1C(C)(C)CC(Nc2nc(Nc3ccc(N4CCN(S(C)(=O)=O)CC4)c(C(F)(F)F)c3)ncc2F)C1(C)C (stereo not drawn) [Compound I-286]
[2]; 24 hours
  IC50: 2420 nM

## CC1(C)CC(Nc2nc(Nc3ccc4c(c3)OCC(C(N)=O)O4)ncc2F)CC(C)(C)N1 (stereo not drawn) [II-159]
[2]; Homo sapiens, T-cell, 24 h
  IC50: 8910 nM

## CN1CCN(Cc2ccc(Nc3ncc(F)c(NC4CC(C)(C)N(C)C(C)(C)C4)n3)cc2C(F)(F)F)CC1 [Compound I-52]
[2]; 24 hours
  IC50: 133 nM

## CCN1C(=O)C2(CCC2)Oc2cc(Nc3ncc(F)c(NC4CC(C)(C)N(C)C(C)(C)C4)n3)ccc21 [II-69]
[2]; 24 hours
  IC50: 164 nM

## CC(C)OC(=O)Nc1ccc(Nc2ncc(F)c(NC3CC(C)(C)N(C)C(C)(C)C3)n2)cc1 [Compound I-137]
[2]; 24 hours
  IC50: 1640 nM
